Laboratory results: patent US10259810B2, “N-sulfonylated pyrazolo[3,4-b]pyridin-6-carboxamides and method of use” (AbbVie S.à.r.l., priority 2015, dated 2019)
pEC50: −log10 of the molar value.

How the values were obtained:
[1] = biological target: T1, ΔF508-CFTR (Homo sapiens, UniProt P13569, DEL508-508); assay: CFTR cell surface levels using HRP-tagged ΔF508-CFTR expressing CFBE cells, intrinsic corrector capacity; assay type: cell-based; set-up: % Activation: concentration or dose not given beside the values
T1 construct: host or cells: CFBE41o-, doxycycline-inducible
T1 sequence (P13569 with tags, fused parts or gaps DEL508-508): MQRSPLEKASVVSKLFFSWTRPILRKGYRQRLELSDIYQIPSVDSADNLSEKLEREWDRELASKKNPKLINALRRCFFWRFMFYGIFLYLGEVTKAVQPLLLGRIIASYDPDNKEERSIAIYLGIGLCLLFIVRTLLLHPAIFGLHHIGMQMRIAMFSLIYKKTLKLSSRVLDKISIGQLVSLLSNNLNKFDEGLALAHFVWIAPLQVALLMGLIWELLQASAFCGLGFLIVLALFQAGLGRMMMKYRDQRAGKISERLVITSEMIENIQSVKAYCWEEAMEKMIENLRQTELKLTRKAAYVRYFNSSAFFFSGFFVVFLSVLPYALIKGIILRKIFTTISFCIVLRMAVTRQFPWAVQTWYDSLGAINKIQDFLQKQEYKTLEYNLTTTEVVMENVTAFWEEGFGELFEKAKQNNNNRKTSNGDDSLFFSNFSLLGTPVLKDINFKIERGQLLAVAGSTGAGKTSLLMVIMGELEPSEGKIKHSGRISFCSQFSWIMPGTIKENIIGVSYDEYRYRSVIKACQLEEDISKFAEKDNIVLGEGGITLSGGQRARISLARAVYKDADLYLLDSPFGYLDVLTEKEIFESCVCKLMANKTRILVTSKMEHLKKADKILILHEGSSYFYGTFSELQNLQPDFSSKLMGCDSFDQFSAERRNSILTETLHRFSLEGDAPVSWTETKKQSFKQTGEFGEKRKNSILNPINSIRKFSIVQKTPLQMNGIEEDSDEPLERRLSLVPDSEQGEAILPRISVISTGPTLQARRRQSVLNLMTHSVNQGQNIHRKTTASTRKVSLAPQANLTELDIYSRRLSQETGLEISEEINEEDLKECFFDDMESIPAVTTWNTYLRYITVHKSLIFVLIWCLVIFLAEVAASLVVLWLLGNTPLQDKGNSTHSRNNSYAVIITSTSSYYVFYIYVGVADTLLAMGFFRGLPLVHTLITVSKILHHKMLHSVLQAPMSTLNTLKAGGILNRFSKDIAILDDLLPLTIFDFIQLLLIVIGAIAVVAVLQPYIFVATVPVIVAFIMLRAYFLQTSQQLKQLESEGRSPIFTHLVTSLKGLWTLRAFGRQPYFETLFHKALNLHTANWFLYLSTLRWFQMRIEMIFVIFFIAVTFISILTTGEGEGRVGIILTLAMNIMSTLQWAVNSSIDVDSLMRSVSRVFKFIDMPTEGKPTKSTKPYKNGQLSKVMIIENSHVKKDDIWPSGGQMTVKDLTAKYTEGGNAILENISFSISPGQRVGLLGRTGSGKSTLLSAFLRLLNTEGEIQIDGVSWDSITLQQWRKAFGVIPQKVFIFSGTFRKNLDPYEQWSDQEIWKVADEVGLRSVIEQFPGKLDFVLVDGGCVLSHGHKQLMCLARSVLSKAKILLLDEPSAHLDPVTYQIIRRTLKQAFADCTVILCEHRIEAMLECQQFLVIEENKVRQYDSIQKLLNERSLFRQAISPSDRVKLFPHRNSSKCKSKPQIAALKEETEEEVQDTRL
Procedure, shortened: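 Read-out: chemiluminescent HRP activity of ECL4-HRP-tagged ΔF508-CFTR at the cell surface, 15 min substrate in dark. Normalized as 100×(sample−DMSO)/(positive control−DMSO).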

[2] = biological target: T1, ΔF508-CFTR; assay: CFTR cell surface levels using HRP-tagged ΔF508-CFTR expressing CFBE cells, in the presence of a co-corrector; assay type: cell-based
Procedure, shortened: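 Chemiluminescent read-out of surface HRP (15 min, dark) after PBS washes. Activity is normalized as 100×(sample−DMSO)/(3 μM co-corrector alone−DMSO).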

[3] = HRP-tagged ΔF508-CFTR expressing CFBE41o- cells, compound alone (intrinsic corrector capacity), 20 hours at 33° C.
[4] = HRP-tagged ΔF508-CFTR expressing CFBE41o- cells, compound alone (intrinsic corrector capacity), 20 hours at 33° C., read-out: EC50
[5] = HRP-tagged ΔF508-CFTR CFBE cells, in the presence of 3 μM co-corrector
[6] = HRP-tagged ΔF508-CFTR CFBE cells, in the presence of 3 μM co-corrector, read-out: EC50

SMILES | % Activation [1, 3] [%] | pEC50 [1, 4] | % Activation [2, 5] [%] | pEC50 [2, 6] | pEC50 [1] | pEC50 [2]
COc1ccc(-c2cc(C(=O)NS(C)(=O)=O)nc3c2c(C)nn3-c2ccc(C)c(Cl)c2)cc1 [Compound 18, 1-(3-chloro-4-methylphenyl)-N-(methanesulfonyl)-4-(4-methoxyphenyl)-3-methyl-1H-pyrazolo[3,4-b]pyridine-6-carboxamide] | 64.675 | 5.64 | 217.8 | 5.95 | – | –
COCCN(C)c1cccc(-n2nc(C(C)C)c3c(-c4ccc(N5CCOCC5)cc4)cc(C(=O)NS(C)(=O)=O)nc32)c1 [Compound 76, N-(methanesulfonyl)-1-{3-[(2-methoxyethyl)(methyl)amino]phenyl}-4-[4-(morpholin-4-yl)phenyl]-3-(propan-2-yl)-1H-pyrazolo[3,4-b]pyridine-6-carboxamide] | 430.87 | 6.28 | 581.37 | 6.20 | – | –
COCCS(=O)(=O)NC(=O)c1cc(N2CCC(N3CCCCC3)CC2)c2c(C3CCC3)nn(-c3ccc(F)cc3)c2n1 [Compound 488, 4-([1,4'-bipiperidin]-1'-yl)-3-cyclobutyl-1-(4-fluorophenyl)-N-(2-methoxyethanesulfonyl)-1H-pyrazolo[3,4-b]pyridine-6-carboxamide] | 246.55 | 6.18 | 488.15 | 6.17 | – | –
CN(C)S(=O)(=O)NC(=O)c1cc(N2CCC(N3CCCCC3)CC2)c2c(C3CCC3)nn(-c3ccccc3)c2n1 [Compound 426, 4-([1,4′-bipiperidin]-1′-yl)-3-cyclobutyl-N-(dimethylsulfamoyl)-1-phenyl-1H-pyrazolo[3,4-b]pyridine-6-carboxamide] | 143.7 | – | 385.3 | – | 6.52 | 7.09
CC(C)c1nn(-c2ccc(F)cc2)c2nc(C(=O)NS(C)(=O)=O)cc(N3CCCC(C(F)F)C3)c12 (stereo not drawn) [Compound 178, 4-[3-(difluoromethyl)piperidin-1-yl]-1-(4-fluorophenyl)-N-(methanesulfonyl)-3-(propan-2-yl)-1H-pyrazolo[3,4-b]pyridine-6-carboxamide] | 202.8 | 6.46 | 381.73 | 6.64 | – | –
COCCS(=O)(=O)NC(=O)c1cc(-c2ccc(OC)cc2)c2c(C)nn(C(C)C)c2n1 [Compound 234, N-(2-methoxyethanesulfonyl)-4-(4-methoxyphenyl)-3-methyl-1-(propan-2-yl)-1H-pyrazolo[3,4-b]pyridine-6-carboxamide] | 17.89 | < 5.00 | 128.3 | < 5.00 | – | –
COC1CCN(c2cc(C(=O)NS(=O)(=O)C3CCS(=O)(=O)C3)nc3c2c(C2CCC2)nn3-c2ccccc2)CC1 (stereo not drawn) [Compound 143, 3-cyclobutyl-N-(1,1-dioxo-1λ^6-thiolane-3-sulfonyl)-4-(4-methoxypiperidin-1-yl)-1-phenyl-1H-pyrazolo[3,4-b]pyridine-6-carboxamide] | 107.15 | 5.95 | 217.8 | 6.08 | – | –
CCS(=O)(=O)NC(=O)c1cc(-c2ccc(N3CCOCC3)cc2)c2c(C)nn(-c3ccc(F)c(F)c3)c2n1 [Compound 116, 1-(3,4-difluorophenyl)-N-(ethanesulfonyl)-3-methyl-4-[4-(morpholin-4-yl)phenyl]-1H-pyrazolo[3,4-b]pyridine-6-carboxamide] | 295.57 | 6.02 | 438.37 | 6.20 | – | –
CN(C)S(=O)(=O)NC(=O)c1cc(CN2CCC(N3CCOCC3)CC2)c2c(C3CCC3)nn(-c3ccc(F)cc3)c2n1 [Compound 595, 3-cyclobutyl-N-(dimethylsulfamoyl)-1-(4-fluorophenyl)-4-{[4-(morpholin-4-yl)piperidin-1-yl]methyl}-1H-pyrazolo[3,4-b]pyridine-6-carboxamide] | 58.87 | 5.82 | 231.9 | 5.84 | – | –
CN(C1CCOCC1)S(=O)(=O)NC(=O)c1cc(N2CCC(N3CCOCC3)CC2)c2c(C3CCC3)nn(-c3ccc(F)cc3)c2n1 [Compound 579, 3-cyclobutyl-1-(4-fluorophenyl)-N-[methyl(oxan-4-yl)sulfamoyl]-4-[4-(morpholin-4-yl)piperidin-1-yl]-1H-pyrazolo[3,4-b]pyridine-6-carboxamide] | 205 | 6.42 | 420.5 | 6.50 | – | –
CC(C)c1nn(-c2ccc(F)cc2)c2nc(C(=O)NS(C)(=O)=O)cc(OCC3CCOCC3)c12 [Compound 284, 1-(4-fluorophenyl)-N-(methanesulfonyl)-4-[(oxan-4-yl)methoxy]-3-(propan-2-yl)-1H-pyrazolo[3,4-b]pyridine-6-carboxamide] | 154.4 | 6.56 | 348.7 | 6.66 | – | –
CC(C)c1nn(-c2ccc(F)cc2F)c2nc(C(=O)NS(C)(=O)=O)cc(-c3cnc(N4CCC(C#N)CC4)nc3)c12 [Compound 139, 4-[2-(4-cyanopiperidin-1-yl)pyrimidin-5-yl]-1-(2,4-difluorophenyl)-N-(methanesulfonyl)-3-(propan-2-yl)-1H-pyrazolo[3,4-b]pyridine-6-carboxamide] | 163.83 | 6.09 | 335.5 | 6.12 | – | –
CCOC(=O)N1CCC(NS(=O)(=O)NC(=O)c2cc(OCC3CCOCC3)c3c(C4CCC4)nn(-c4ccccc4)c3n2)CC1 [Compound 356, ethyl 4-[({3-cyclobutyl-4-[(oxan-4-yl)methoxy]-1-phenyl-1H-pyrazolo[3,4-b]pyridine-6-carbonyl}sulfamoyl)amino]piperidine-1-carboxylate] | 188.25 | 6.98 | 372 | 7.32 | – | –
Cc1cc(-n2nc(C3CCC3)c3c(N4CCC(N5CCOCC5)CC4)cc(C(=O)NS(C)(=O)=O)nc32)ccc1F [Compound 514, 3-cyclobutyl-1-(4-fluoro-3-methylphenyl)-N-(methanesulfonyl)-4-[4-(morpholin-4-yl)piperidin-1-yl]-1H-pyrazolo[3,4-b]pyridine-6-carboxamide] | 301.4 | 6.82 | 540.3 | 7.01 | – | –
CS(=O)(=O)NC(=O)c1cc(N2CC3(CCC3)C2)c2c(C3CCC3)nn(-c3ccccc3)c2n1 [Compound 214, 4-(2-azaspiro[3.3]heptan-2-yl)-3-cyclobutyl-N-(methanesulfonyl)-1-phenyl-1H-pyrazolo[3,4-b]pyridine-6-carboxamide] | 103.6 | 6.00 | 250.55 | 6.42 | – | –
C[C@H]1CN(c2cc(C(=O)NS(=O)(=O)N(C)C)nc3c2c(C2CCC2)nn3C2CCCCC2)CCN1Cc1ccccc1 [Compound 581, 4-[(3S)-4-benzyl-3-methylpiperazin-1-yl]-3-cyclobutyl-1-cyclohexyl-N-(dimethylsulfamoyl)-1H-pyrazolo[3,4-b]pyridine-6-carboxamide] | 33.38 | 6.43 | 191.3 | 6.12 | – | –
COc1cccc(-n2nc(C3CCC3)c3c(N4CCC(N5CCOCC5)CC4)cc(C(=O)NS(=O)(=O)N(C)C)nc32)c1 [Compound 499, 3-cyclobutyl-N-(dimethylsulfamoyl)-1-(3-methoxyphenyl)-4-[4-(morpholin-4-yl)piperidin-1-yl]-1H-pyrazolo[3,4-b]pyridine-6-carboxamide] | 287.5 | 6.73 | 439.6 | 7.15 | – | –
CC(C)Oc1nn(C2CCCCC2)c2nc(C(=O)NS(C)(=O)=O)cc(-c3ccc(C(=O)N4CC5CN(C)CC5C4)cc3)c12 (stereo not drawn) [Compound 637, 1-cyclohexyl-N-(methanesulfonyl)-4-[4-(5-methylhexahydropyrrolo[3,4-c]pyrrole-2(1H)-carbonyl)phenyl]-3-[(propan-2-yl)oxy]-1H-pyrazolo[3,4-b]pyridine-6-carboxamide] | 191.88 | 5.60 | 413.4 | 6.01 | – | –
COc1cccc(-n2nc(C)c3c(-c4ccc(N5CCOCC5)cc4)cc(C(=O)NS(C)(=O)=O)nc32)c1 [Compound 72, N-(methanesulfonyl)-1-(3-methoxyphenyl)-3-methyl-4-[4-(morpholin-4-yl)phenyl]-1H-pyrazolo[3,4-b]pyridine-6-carboxamide] | 232.5 | 5.65 | 400.9 | 5.25 | – | –
COCC1CCN(c2cc(C(=O)NS(=O)(=O)N3CCC(N4CCCC4)CC3)nc3c2c(C2CCC2)nn3-c2ccccc2)CC1 [Compound 388, 3-cyclobutyl-4-[4-(methoxymethyl)piperidin-1-yl]-1-phenyl-N-[4-(pyrrolidin-1-yl)piperidine-1-sulfonyl]-1H-pyrazolo[3,4-b]pyridine-6-carboxamide] | 192.8 | – | 364.5 | – | 6.66 | 6.71
COCC1CCN(c2cc(C(=O)NS(=O)(=O)CCNC(C)=O)nc3c2c(C2CCC2)nn3-c2ccccc2)CC1 [Compound 386, N-(2-acetamidoethanesulfonyl)-3-cyclobutyl-4-[4-(methoxymethyl)piperidin-1-yl]-1-phenyl-1H-pyrazolo[3,4-b]pyridine-6-] | 237.85 | 5.67 | 385.05 | 6.16 | – | –
